# Where two headings read alike, the source gives them in different places.
# How the values were obtained:
# [1] = Release of BCNU from silicone balloons into water; format: physicochemical
# Description: Into one balloon prepared as in Example 1 was injected 0.15 ml. of 1% ethanol containing 0.6 mg. of BCNU and into a second balloon 0.15 ml. of 10% ethanol containing 0.5 mg of BCNU.
# Each balloon was placed in a scintillation vial containing 5 ml of water and shaken at 37° C. in an automatic shaker. At specified time intervals, the aqueous liquid was removed from the vials containing the balloons. The amount of BCNU dissolved in the water was determined by spectroscopic analysis (absorbance at 232 nm). The water in each scintillation vessel was replaced with 5 ml. of fresh water. […] Results for both ethanolic solutions were as in FIG. 2. (- - -).
# BCNU (7.5 mg/0.15 ml sesame oil) was injected into a silicone balloon which was placed in a flask with 5 ml of distilled water and shaken in an automatic shaker at 37° C. The procedure of Example 3(a) was repeated for as many time as positive absorption at 232 nm was recorded. When the experiment had to be interrupted overnight, the dried silicone balloon containing BCNU in sesame oil was stored at -15° C.
# BCNU in absolute ethanol solution (13 mg/0.15 ml, 20 mg/0.15 ml, and 60 mg/0.15 ml) was injected in each of three silicone balloons. Release of BCNU from the balloon was followed as in Example 3. Results of this experiment are shown in FIG. 3, in which (--. --. --.) represents data for the solution containing 13 mg of BCNU, (- - -) the solution containing 20 mg and (--) the solution containing 60 mg. A sharp drop in the BCNU release rate after 3-4 hours, indicated by the arrow in the Figure, is correlated with diffusion of all of the ETOH from the balloons.
# [2] = Stability of BCNU in aqueous solution (absorbance at 232 nm); format: physicochemical
# Excerpt: The decomposition of BCNU in water and in 1% aqueous ethanol was followed by measuring the characteristic BCNU absorbance maximum at 232 nm, using a Beckman DK-2A spectrophotometer. A second maximum that appeared at 190 nm and increased during decomposition was not a reliable indicator of the drug's breakdown.
# Brown-Pearce epithelioma = experiment: Histopathological observations of enucleated rabbit eyes with Brown-Pearce epithelioma; format: in vivo, New Zealand female albino rabbits
# Excerpt: Preoperative examination of 28 eyes in 14 New Zealand femal albino rabbits weighing 2.0 to 2.5 kg included biomicroscopy, tonotometry, and indirect ophthalmoscopy. All animals had normal eyes. Both eyes of each animal were inoculated intracamerally with Brown-Pearce epithelioma tissue by the technique at 993 of Liu et al., Invest. Ophthalmol Visual Sci., Vol. 17 (1978).
# Three days after tumor tissue implantation, a silicone device described in Example 1 was implanted episclerally in each eye. Animals were anesthetized with sodium pentobarbital 24 mg/kg body weight administered intravenously. After routine preparation of the rabbit and the eyes, a pocket beneath the conjunctiva and Tenon's capsule was made in the upper temporal quadrant of the eye. The silicone device was inserted into the pocket but the small tube remained accessible to permit injection of test substance. Two 7-0 silk sutures were applied on both shoulders of the silicone device and on the episcleral tissue at the pars plana to hold the device in position. The conjunctiva was closed with two 7-0 silk sutures. Then 0.15 ml of the BCNU solution or the diluent (control) was injected into the device with a tuberculin syringe and a 30-gauge needle through the tube which was outside the closed conjunctiva as shown in FIG. 5. The injecting tube was fixed on the upper fornix.
# Seven animals (Group 1A) received 3.0 mg of BCNU in 0.15 ml of sesame oil in one eye on the third, sixth, and ninth days after tumor implantation (total dose 9.0 mg). Three animals (Group 1B) received 12.0 mg of BCNU in 0.15 ml of sesame oil on the same schedule (total dose 36.0/mg). Four animals (Group II) received 13.0 mg of BCNU in pure ethanol on the third and sixth days after tumor implantation (total dose 26.0 mg). The fellow eyes served as controls and received diluent only.
# Ocular examinations were made on alternate days during the 20 days following tumor implantation; at that time all eyes were enucleated. The effectiveness of treatment was measured by (1) comparing the extent of tumor growth in the anterior chamber of treated and control eyes, (2) noting the occurrence of distortion and perforation of the globe due to tumor growth, (3) weighing all eyes following enucleation, and (4) comparing the histopathologic changes in the eyes.
# The enucleated eyes were fixed in 10% buffered formalin in preparation for histopathological examination. A sagittal section on either side of the optic nerve was made. Pupil-optic nerve sections and the two calottes were processed routinely for histologic evaluation, using hematoxyline and eosin (H&E) stain. The eyes were imbedded in paraffin and cut in sections 6μ thick for light microscopy. Every fifth section was stained. About 50 sections from each eye were examined.
# E. coli = experiment: Microbiological assay of BCNU: inhibition of E. coli in agar plates; format: cell-based
# Description: BCNU activity was evaluated by placing a silicone balloon containing BCNU in 0.2 ml of ethanol in a gelled agar plate seeded with E. coli (10^6 colonies/ml). The balloon was covered with a layer of seeded agar. The culture was incubated overnight at 35° C. and the zone of inhibition was measured. The balloons were transferred daily to new plates and the procedure repeated as long as activity was detected. The diameters of the zones of inhibition were compared with a standard semilogarythmic plot obtained using known amount of BCNU absorbed in filter paper about the size of the balloons. […] In control experiments with balloons filled with 0.2 ml of ethanol no inhibition of E. coli was observed. After a single overnight incubation, all of the alcohol had diffused from the balloon.
# The smaller zone was very clear, and probably totally free of bacterial growth. The larger one was distinct, but had some diffuse bacterial growth. […] The microbiological assay is a useful test of cytotoxic activity of the implants, but the results are only semiquantitative, owing to simultaneous decomposition and diffusion of BCNU.
# A 10 mg sample of solid was placed in a 7-mm-diameter reservoir made of two silicone membranes (0.1 mm thick) separated by a silicone rubber ring spacer (1.0 mm wide×1.5 mm thick) and glued with silicone adhesive. The sandwich-type silicone device containing 10 mg of solid BCNU was imbedded in agar plates seeded with E. coli and incubated repeatedly as in Example 5(a).
smiles,measurement,setting,value
"O=NN(CCCl)C(=O)NCCCl [BCNU, 1,3-bis-(2-chloroethyl)-1-nitrosourea]",rate of BCNU release from silicone balloons into water,"[1]; 1% or 10% ethanol, 37° C.",rapidly decreasing rate
same,"BCNU release rate after alcohol depletion, comparison of the three balloons","[1]; 13, 20 and 60 mg/0.15 ml absolute ethanol",about the same for the three balloons
same,depletion of BCNU from silicone microballoons,[1]; BCNU in sesame oil,depleted rather rapidly
same,rate of BCNU release from silicone microballoons into water,"[1]; BCNU in sesame oil, 37° C.",variable rate
same,BCNU remaining inside balloons after alcohol depletion,[1]; absolute ethanol,essentially pure BCNU remained inside the balloons
same,time of sharp drop in the BCNU release rate,"[1]; absolute ethanol, 13, 20 and 60 mg/0.15 ml, 37° C.",3 to 4 h
same,rate of BCNU diffusion from balloon into water after alcohol depletion,"[1]; absolute ethanol, after the alcohol has left",relatively constant rate
same,duration of BCNU release,[1]; balloon containing the largest amount (60 mg/0.15 ml absolute ethanol),released it over the longest time
same,half-life,"[2]; 1% ethanol, 1% ethanol solution, of the order of, read-out: Decomposition of BCNU in 1% ethanol solution",~4.1 h
same,half-life,"[2]; 1% ethanol, 37° C., read-out: half-life of BCNU in 1% ethanol",4.1 h
same,half-life,"[2]; water, 37° C., read-out: half-life of BCNU in water",3.83 h
same,"infiltration and extrascleral extension, histology","Brown-Pearce epithelioma; Group I, BCNU in sesame oil",The inner scleral and corneal lamellae were infiltrated with tumor; no extrascleral extension was noted
same,mitotic index,"Brown-Pearce epithelioma; Group I, BCNU in sesame oil",remained high
same,necrosis,"Brown-Pearce epithelioma; Group I, BCNU in sesame oil",necrosis was prominent
same,"tumor extent, histology","Brown-Pearce epithelioma; Group I, BCNU in sesame oil","Tumor growth tended to be limited to the anterior segment, but in some instances replaced the iris and ciliary body"
same,intraocular architecture and invasion of the cornea or sclera,"Brown-Pearce epithelioma; Group II, BCNU in pure ethanol","Normal intraocular architecture was maintained, with no evidence of invasion of the cornea or sclera"
same,mitotic index,"Brown-Pearce epithelioma; Group II, BCNU in pure ethanol",6 to 8 per high power field
same,necrosis versus control eyes,"Brown-Pearce epithelioma; Group II, BCNU in pure ethanol",less prominent than in control eyes
same,"reduction of tumor growth, histology","Brown-Pearce epithelioma; Group II, BCNU in pure ethanol",most significant reduction of tumor growth
same,"tumor extent, histology","Brown-Pearce epithelioma; Group II, BCNU in pure ethanol","Only small foci of tumor, limited to the anterior segment"
same,"tumor nodules in iris and ciliary body, histology","Brown-Pearce epithelioma; Group II, BCNU in pure ethanol",small nodules of tumor were found in the iris stroma and iris root with occasional involvement of the ciliary body
same,histological difference between Group IA and Group IB eyes,Brown-Pearce epithelioma; total 9.0 mg versus total 36.0 mg BCNU in sesame oil,no observable difference histologically
same,"depletion of drug activity, solid BCNU in sandwich-type silicone device",E. coli; 10 mg solid BCNU versus 10 mg BCNU in 0.2 ml ethanol in balloon,depletion of drug activity similar to that obtained with 10 mg BCNU in 0.2 ml ethanol in a silicone balloon
same,activity in the seventh incubation,E. coli; 30 and 40 mg BCNU in 0.2 ml ethanol,zero activity
same,activity in consecutive incubations,"E. coli; 30 and 40 mg BCNU in 0.2 ml ethanol, daily incubations at 35° C.",comparable activity for six consecutive incubations
same,duration of inhibition of growth of E. coli cultures,"E. coli; 30 or 40 mg BCNU in ethanol, silicone microballoons",6 days
same,zones of inhibition,"E. coli; BCNU in 0.2 ml ethanol, balloons, overnight 35° C.",two concentric and distinct zones of inhibition
same,BCNU remaining inside balloons after first incubation in agar,E. coli; BCNU in ethanol,essentially pure BCNU remains inside the balloons
same,BCNU content of balloons after first night's incubation,"E. coli; BCNU in ethanol, after first overnight incubation",~100%
same,inhibitory activity versus filter paper impregnated with known amounts of BCNU,E. coli; ethanolic solutions in silicone microballoons,unimpaired

# — patent publication US4300557A, “Method for treating intraocular malignancies” (The United States of America as represented by the …, priority 1980, dated 1981)
